Measured values reported in publication PMC11476419, “Analysis of Punicalin and Punicalagin Interaction with PDIA3 and PDIA1” (International Journal of Molecular Sciences, 2024).

What was measured:
PDIA3 = biological target: T1, PDIA3 (Homo sapiens, UniProt P30101); test: Differential scanning fluorimetry (protein thermal shift); assay type: binding
T1 construct: The mature recombinant form (devoid of the N-terminal presence) of the human PDIA3 protein was expressed and purified; made in house
T1 sequence (P30101 25-505): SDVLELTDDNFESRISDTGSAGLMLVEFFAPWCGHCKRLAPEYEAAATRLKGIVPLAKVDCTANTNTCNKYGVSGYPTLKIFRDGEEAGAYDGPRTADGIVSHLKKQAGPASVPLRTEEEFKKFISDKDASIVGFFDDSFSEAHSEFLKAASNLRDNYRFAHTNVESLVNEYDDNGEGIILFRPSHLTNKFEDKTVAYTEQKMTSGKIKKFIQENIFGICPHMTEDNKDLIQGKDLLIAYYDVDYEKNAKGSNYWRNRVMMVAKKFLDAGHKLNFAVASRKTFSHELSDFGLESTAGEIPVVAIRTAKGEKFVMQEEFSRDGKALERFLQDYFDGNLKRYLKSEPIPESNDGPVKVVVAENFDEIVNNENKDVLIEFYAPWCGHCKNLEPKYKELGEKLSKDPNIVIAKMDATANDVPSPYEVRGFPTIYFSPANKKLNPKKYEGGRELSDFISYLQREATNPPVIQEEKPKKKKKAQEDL
Experimental: (§1) The effect of punicalin and punicalagin on the stability of both proteins was evaluated by differential scanning fluorimetry (DSF). Initially, PDIA1 and PDIA3 were incubated at 25 °C for 20 min with both substances at 5 µM and 20 µM concentrations. […] The reading was optimized at intervals of 0.2 °C every 5 s. Once the fluorescence profile was obtained, the data were analyzed with the GraphPad prism program, by either fitting data with a Boltzmann equation or calculating the first derivative. In DSF analyses, a gradual increase in fluorescence is observed, due to a conformational change in the protein, which reaches a maximum value and then decreases because of protein precipitation.
(§2) To evaluate Tm, we focused the attention on the main transition, and thus we fitted, with a Boltzmann equation, the data in the range of 25–55 °C for PDIA3 and in the range of 45–70 °C for PDIA1. Again, the two substances show a destabilizing effect, which was more evident for PDIA3 than for PDIA1. In fact, punicalagin and punicalin at a 20 µM concentration cause a shift of Tm of at least 6 °C in the case of PDIA3, while this is approximately 3 °C for PDIA1 (Figure 7).
(§3) Protein stability in the absence and presence of punicalagin/punicalin was tested by means of the fluorescence-based thermal stability assay or differential scanning fluorimetry (DSF) developed by Pantoliano and coworkers. DSF records the fluorescence emission signal from the binding of a dye (SYPRO orange) to the exposed hydrophobic patches upon protein unfolding. Fluorescence measurements were performed using a CFX96 Connect RT-PCR instrument (BioRad, Hercules, CA, USA). Aliquots of 18 μL of protein solution (2 μM), freshly diluted in Tris Buffered saline (50 mM TrisHCl, pH 8.0, 150 mM NaCl) containing 0.1 mM DTT, 0.2 mM EDTA, and 1: 1000 dilution of SYPRO Orange (50 mM stock solution in DMSO), were distributed in a 96-well plate. Sample wells were added with punicalagin or punicalin at a final concentration of 5 uM or 20 μM by adding 2 μL of a 10-fold concentrated freshly prepared stock solution. As control, the protein solution was added with 2 μL of the dilution buffer. A melting point analysis was recorded by increasing the temperature from 25 to 70 °C with an increment of 0.2 °C every 5 s and reading, at each temperature, the fluorescence in fluorescence resonance energy transfer mode (FRET). Each measure was the average of three sample well readings, and each DSF experiment was repeated at least three times. To calculate Tm values, DSF data from the melting curve were exported and fitted to a Boltzmann equation using GraphPad software. The effect of punicalagin and punicalin was evaluated comparing the Tm values in the presence and absence of each molecule.

PDIA1 = biological target: T2, PDIA1 (Homo sapiens, UniProt P07237); test: as above; assay type: binding; conditions: PDIA1, compound 20 µM
T2 construct: The mature human PDIA1 with an N-terminal His6x-tag was expressed and purified; His6 (N); made in house
T2 sequence (P07237 18-508): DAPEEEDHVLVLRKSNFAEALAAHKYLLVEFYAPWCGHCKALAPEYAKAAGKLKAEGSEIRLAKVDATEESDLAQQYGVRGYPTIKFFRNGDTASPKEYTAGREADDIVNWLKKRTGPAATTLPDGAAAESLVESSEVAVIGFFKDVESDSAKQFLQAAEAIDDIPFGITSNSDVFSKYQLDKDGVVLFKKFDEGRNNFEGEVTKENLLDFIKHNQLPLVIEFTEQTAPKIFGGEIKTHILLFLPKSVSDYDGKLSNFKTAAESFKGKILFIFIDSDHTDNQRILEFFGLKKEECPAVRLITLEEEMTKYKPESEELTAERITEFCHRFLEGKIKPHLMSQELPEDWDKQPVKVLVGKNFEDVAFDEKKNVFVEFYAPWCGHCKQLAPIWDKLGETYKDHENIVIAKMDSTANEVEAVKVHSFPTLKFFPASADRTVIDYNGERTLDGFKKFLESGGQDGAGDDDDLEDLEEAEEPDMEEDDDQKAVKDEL
Experimental: as §1, §2, §3

U87 MG cells [1] = test: Cell viability by MTT assay; assay type: cell-based, human; conditions: 1 µM to 20 µM, 24 h, 48 h, 72 h
Experimental: (§4) The cell viability assay was used to evaluate the effect of punicalin as a PDI inhibitor. T98G and U87 MG glioblastoma cell lines were treated with increasing concentrations of punicalin, and the reduction in MTT substrate was determined after 24 h, 48 h, and 72 h. […] Here, we compared the ability of punicalin with that of punicalagin to prevent the growth of these cells (Figure 5).
(§5) T98G and U-87 MG cells were seeded into 96-well plates (10.000 cells/well). The effect of punicalin, at the final concentration of 1 µM to 20 µM, was evaluated on cell viability after 24 h and 48 h of incubation. To assess cell viability, the enzymatic reduction of MTT (3-(4,5-dimethylthiazol-2-yl)-2,5-diphenyl-2H-tetrazolium bromide) (Sigma-Aldrich, Milan, Italy, cat. M2128) to MTT formazan was used. Cell cultures were further incubated for 2 h in culture medium containing 0.5 mg/mL MTT. After 2 h of incubation, the solution was removed and the blue MTT formazan product was dissolved in DMSO (Sigma-Aldrich, cat. D8418). After 30 min at room temperature, the absorbance of the formazan solution was spectrophotometrically read at 570 nm using an Appliskan® plate reader (Thermo Fisher Scientific, Monza, Italy).

T98G cells [2] = test: Cell viability by MTT assay; assay type: cell-based, human
Experimental: as §4, §5

U87 MG cells [3] = test: Cell counting (crystal violet); assay type: cell-based, human; conditions: 5 µM and 20 µM, 24 h, 48 h, 72 h
Experimental: (§6) The number of cells was evaluated after 24 h, 48 h, and 72 h of treatment with punicalin at the concentration of 5 µM and 20 µM (Figure 5b). […] However, an increase in the cell number occurred after 72 h of treatment with punicalin at a 5 µM concentration.
(§7) T98G and U-87 MG cells were seeded into 12-well plates (70,000 cells/well) and treated with 5 µM and 20 µM concentrations of punicalin for 24 h, 48 h, and 72 h. At the end of incubation, the cells were washed with PBS (Sigma-Aldrich, cat. D8662), fixed with cold methanol for 20 min, stained with 0.1% crystal violet in methanol/PBS (ratio 1:4) at room temperature for 1 h, and washed again in PBS. To estimate the number of cells remaining in each well, the crystal violet was solubilized by adding a methanol/water solution (50% v/v) and the absorbance at 595 nm was measured.

T98G cells [4] = test: Cell counting (crystal violet); assay type: cell-based, human
Experimental: as §6, §7

left shift of first transition (first-derivative graph) (PDIA3; PDIA3, compound 20 µM): about 3 °C
shift towards lower temperature of second transition (first-derivative graph) (PDIA3; PDIA3, compound 20 µM): more than 10 °C
shift of Tm (destabilizing, Boltzmann fit) (PDIA3; PDIA3, compound 20 µM, fit range 25–55 °C): at least 6 °C
Tm of PDIA3 after addition of compound (PDIA3; PDIA3 alone Tm 46 °C): below 40 °C
change in the thermal stability of PDIA3, shift (PDIA3; abstract statement): up to 8 °C
shift towards lower temperature of second main transition (first-derivative graph) (PDIA1): about 5 °C
shift of Tm (destabilizing, Boltzmann fit) (PDIA1; fit range 45–70 °C): approximately 3 °C
SMILES: O=C1OC[C@H]2OC(O)[C@H](O)[C@@H](O)[C@@H]2OC(=O)c2cc(O)c(O)c(O)c2-c2c(O)c(O)c3oc(=O)c4c(c(O)c(O)c5oc(=O)c2c3c54)-c2c1cc(O)c(O)c2O (mixture of isomers) [Punicalin, punicalin]
effect on cell viability (MTT) (U87 MG cells [1]): the effect becomes evident only at the highest concentration
effect on cell viability (MTT) (T98G cells [2]; 1 µM to 20 µM, 24 h, 48 h, 72 h): concentration- and time-dependent decrease in cell viability
effect on cell viability (T98G cells [2]; 20 µM): significantly reduced the cell viability
effect on cell number (U87 MG cells [3]): the effect is evident only at the highest concentration used
kind of effect on cells (T98G cells [4]; 5 µM): preferential cytostatic effect
kind of effect on cells (T98G cells [4]; 20 µM): cytotoxic
effect on cell number (T98G cells [4]; 48 h, 5 µM and 20 µM): marked reduction in the T98G cell number
